| Structure (SMILES) | melting point [°C] |
| --- | --- |
| COc1cc(OCc2ccccn2)ccc1/C=C/c1cc(/C=C/c2cccc3cc[nH]c23)[nH]n1 [Example 41, 3-[(1E)-2-(1H-indol-7-yl)ethenyl]-5-[(1E)-2-[2-methoxy-4-(2-pyridylmethoxy)phenyl]ethenyl]-1H-pyrazole] | 99 to 110 |
| COc1cc(OCc2cccnc2)ccc1/C=C/c1cc(/C=C/c2c[nH]c3ccccc23)[nH]n1 [Example 42, 3-[(1E)-2-(1H-indol-3-yl)ethenyl]-5-[(1E)-2-[2-methoxy-4-(3-pyridylmethoxy)phenyl]ethenyl]-1H-pyrazole] | 129 to 137 |
| COc1cc(OCc2ccncc2)ccc1/C=C/c1cc(/C=C/c2c[nH]c3ccccc23)[nH]n1 [Example 43, 3-[(1E)-2-(1H-indol-3-yl)ethenyl]-5-[(1E)-2-[2-methoxy-4-(4-pyridylmethoxy)phenyl]ethenyl]-1H-pyrazole] | 128 to 139 |
| COc1cc(OCc2cccnc2)ccc1/C=C/c1cc(/C=C/c2ccc3[nH]ccc3c2)[nH]n1 [Example 44, 3-[(1E)-2-(1H-indol-5-yl)ethenyl]-5-[(1E)-2-[2-methoxy-4-(3-pyridylmethoxy)phenyl]ethenyl]-1H-pyrazole] | 127 to 135 |
| COc1cc(OCc2ccncc2)ccc1/C=C/c1cc(/C=C/c2ccc3[nH]ccc3c2)[nH]n1 [Example 45, 3-[(1E)-2-(1H-indol-5-yl)ethenyl]-5-[(1E)-2-[2-methoxy-4-(4-pyridylmethoxy)phenyl]ethenyl]-1H-pyrazole] | 133 to 141 |
| COc1cc(OCc2cccnc2)ccc1/C=C/c1cc(/C=C/c2ccc3cc[nH]c3c2)[nH]n1 [Example 46, 3-[(1E)-2-(1H-indol-6-yl)ethenyl]-5-[(1E)-2-[2-methoxy-4-(3-pyridylmethoxy)phenyl]ethenyl]-1H-pyrazole] | 90 to 95 |
| COc1cc(OCc2ccncc2)ccc1/C=C/c1cc(/C=C/c2ccc3cc[nH]c3c2)[nH]n1 [Example 47, 3-[(1E)-2-(1H-indol-6-yl)ethenyl]-5-[(1E)-2-[2-methoxy-4-(4-pyridylmethoxy)phenyl]ethenyl]-1H-pyrazole] | 103 to 118 |
| COc1cc(OCc2cccnc2)ccc1/C=C/c1cc(/C=C/c2cccc3[nH]ccc23)[nH]n1 [Example 48, 3-[(1E)-2-(1H-indol-4-yl)ethenyl]-5-[(1E)-2-[2-methoxy-4-(3-pyridylmethoxy)phenyl]ethenyl]-1H-pyrazole] | 109 to 114 |
| COc1cc(OCc2ccncc2)ccc1/C=C/c1cc(/C=C/c2cccc3[nH]ccc23)[nH]n1 [Example 49, 3-[(1E)-2-(1H-indol-4-yl)ethenyl]-5-[(1E)-2-[2-methoxy-4-(4-pyridylmethoxy)phenyl]ethenyl]-1H-pyrazole] | 207 to 215 |
| COc1cc(OCc2cccnc2)ccc1/C=C/c1cc(/C=C/c2cccc3cc[nH]c23)[nH]n1 [Example 50, 3-[(1E)-2-(1H-indol-7-yl)ethenyl]-5-[(1E)-2-[2-methoxy-4-(3-pyridylmethoxy)phenyl]ethenyl]-1H-pyrazole] | 122 to 129 |
| COc1cc(OCc2ccncc2)ccc1/C=C/c1cc(/C=C/c2cccc3cc[nH]c23)[nH]n1 [Example 51, 3-[(1E)-2-(1H-indol-7-yl)ethenyl]-5-[(1E)-2-[2-methoxy-4-(4-pyridylmethoxy)phenyl]ethenyl]-1H-pyrazole] | 201 to 206 |
| COc1cc(OCc2cccnc2)ccc1/C=C/c1cc(/C=C/c2cc3ccccc3[nH]2)[nH]n1 [Example 52, 3-[(1E)-2-(1H-indol-2-yl)ethenyl]-5-[(1E)-2-[2-methoxy-4-(3-pyridylmethoxy)phenyl]ethenyl]-1H-pyrazole] | 126 to 138 |
| COc1cc(OCc2ccncc2)ccc1/C=C/c1cc(/C=C/c2cc3ccccc3[nH]2)[nH]n1 [Example 53, 3-[(1E)-2-(1H-indol-2-yl)ethenyl]-5-[(1E)-2-[2-methoxy-4-(4-pyridylmethoxy)phenyl]ethenyl]-1H-pyrazole] | 124 to 134 |
| COc1ccc(/C=C/c2cc(/C=C/c3ccc4cc[nH]c4c3)[nH]n2)c(OC)c1 [Example 54, 3-[(1E)-2-(2,4-dimethoxyphenyl)ethenyl]-5-[(1E)-2-(1H-indol-6-yl)ethenyl]-1H-pyrazole] | 121 to 133 |
| CC(=O)Nc1ccc(/C=C/c2cc(/C=C/c3ccc4cc[nH]c4c3)[nH]n2)cc1 [Example 55, 3-[(1E)-2-[4-(acetylamino)phenyl]ethenyl]-5-[(1E)-2-(1H-indol-6-yl)ethenyl]-1H-pyrazole] | > 300 |
| C(=C\c1cc(/C=C/c2ccc3cc[nH]c3c2)[nH]n1)/c1ccc(Oc2ccccc2)cc1 [Example 56, 3-[(1E)-2-(1H-indol-6-yl)ethenyl]-5-[(1E)-2-(4-phenoxyphenyl)ethenyl]-1H-pyrazole] | 175 to 182 |
| CS(=O)(=O)c1ccc(/C=C/c2cc(/C=C/c3ccc4cc[nH]c4c3)[nH]n2)cc1 [Example 57, 3-[(1E)-2-(1H-indol-6-yl)ethenyl]-5-[(1E)-2-[4-(methanesulfonyl)phenyl]ethenyl]-1H-pyrazole] | 260 to 268 |

| Structure (SMILES) | melting point [°C] |
| --- | --- |
| C(=C\c1cc(/C=C/c2ccccc2-c2cccnc2)n[nH]1)/c1ccc2cc[nH]c2c1 [Example 59, 3-[(1E)-2-(1H-indol-6-yl)ethenyl]-5-[(1E)-2-[2-(3-pyridyl)phenyl]ethenyl]-1H-pyrazole] | 248 to 255 |
| COc1cc(Br)c(/C=C/c2cc(/C=C/c3ccc4cc[nH]c4c3)[nH]n2)cc1O [Example 60, 3-[(1E)-2-(2-bromo-5-hydroxy-4-methoxyphenyl)ethenyl]-5-[(1E)-2-(1H-indol-6-yl)ethenyl]-1H-pyrazole] | 137 to 142 |
| C(=C\c1cc(/C=C/c2ccc3cc[nH]c3c2)[nH]n1)/c1ccc(-c2ccccc2)cc1 [Example 61, 3-[(1E)-2-(1H-indol-6-yl)ethenyl]-5-[(1E)-2-(4-phenylphenyl)ethenyl]-1H-pyrazole] | 273 to 276 |
| CN1CCN(c2ccc(/C=C/c3cc(/C=C/c4ccc5cc[nH]c5c4)[nH]n3)c(Br)c2)CC1 [Example 62, 3-[(1E)-2-[2-bromo-4-(4-methylpiperazin-1-yl)phenyl]ethenyl]-5-[(1E)-2-(1H-indol-6-yl)ethenyl]-1H-pyrazole] | 120 to 124 |
| COc1cc(OC(c2ccccc2)c2ccccc2)ccc1/C=C/c1cc(/C=C/c2ccc3cc[nH]c3c2)[nH]n1 [Example 64, 3-[(1E)-2-[4-(diphenylmethoxy)-2-methoxyphenyl]ethenyl]-5-[(1E)-2-(1H-indol-6-yl)ethenyl]-1H-pyrazole] | 114 to 119 |
| COc1cc(OC(C)C)ccc1/C=C/c1cc(/C=C/c2ccc3cc[nH]c3c2)[nH]n1 [Example 65, 3-[(1E)-2-(1H-indol-6-yl)ethenyl]-5-[(1E)-2-(4-isopropoxy-2-methoxyphenyl)ethenyl]-1H-pyrazole] | 107 to 113 |
| COCCOc1ccc(/C=C/c2cc(/C=C/c3ccc4cc[nH]c4c3)[nH]n2)c(OC)c1 [Example 66, 3-[(1E)-2-(1H-indol-6-yl)ethenyl]-5-[(1E)-2-[2-methoxy-4-(2-methoxyethoxy)phenyl]ethenyl]-1H-pyrazole] | 90 to 96 |
| COc1ccc(Br)c(/C=C/c2cc(/C=C/c3ccc4cc[nH]c4c3)[nH]n2)c1 [Example 67, 3-[(1E)-2-(2-bromo-5-methoxyphenyl)ethenyl]-5-[(1E)-2-(1H-indol-6-yl)ethenyl]-1H-pyrazole] | 103 to 109 |
| COc1ccc(COc2ccc(/C=C/c3cc(/C=C/c4ccc5cc[nH]c5c4)[nH]n3)c(OC)c2)cc1 [Example 68, 3-[(1E)-2-(1H-indol-6-yl)ethenyl]-5-[(1E)-2-[2-methoxy-4-(4-methoxybenzyloxy)phenyl]ethenyl]-1H-pyrazole] | 211 to 214 |
| COc1cc(OCc2ccccn2)ccc1/C=C/c1cc(/C=C/c2cccc3ncccc23)[nH]n1 [Example 69, 3-[(1E)-2-(quinolin-5-yl)ethenyl]-5-[(1E)-2-[2-methoxy-4-(2-pyridylmethoxy)phenyl]ethenyl]-1H-pyrazole] | 107 to 120 |
| COc1cc(OCc2ccccn2)ccc1/C=C/c1cc(/C=C/c2ccc3ccn(Cc4ccccc4)c3c2)[nH]n1 [Example 70, 3-[(1E)-2-(1-benzyl-1H-indol-6-yl)ethenyl]-5-[(1E)-2-[2-methoxy-4-(2-pyridylmethoxy)phenyl]ethenyl]-1H-pyrazole] | 89 to 93 |
| Brc1cc(N2CCOCC2)ccc1/C=C/c1cc(/C=C/c2ccc3cc[nH]c3c2)[nH]n1 [Example 71, 3-[(1E)-2-[2-bromo-4-(morpholin-4-yl)phenyl]ethenyl]-5-[(1E)-2-(1H-indol-6-yl)ethenyl]-1H-pyrazole] | 143 to 148 |
| COc1cc(OCc2ccccn2)ccc1/C=C/c1cc(/C=C/c2ccc3ccn(C(C)=O)c3c2)[nH]n1 [Example 73, 3-[(1E)-2-(1-acetyl-1H-indol-6-yl)ethenyl]-5-[(1E)-2-[2-methoxy-4-(2-pyridylmethoxy)phenyl]ethenyl]-1H-pyrazole] | 182 to 187 |
| COc1cc(OCc2ccccn2)ccc1/C=C/c1cc(/C=C/c2ccc3ccn(S(C)(=O)=O)c3c2)[nH]n1 [Example 74, 3-[(1E)-2-(1-methanesulfonyl-1H-indol-6-yl)ethenyl]-5-[(1E)-2-[2-methoxy-4-(2-pyridylmethoxy)phenyl]ethenyl]-1H-pyrazole] | 212 to 214 |
| COc1cc(OCc2ccccn2)ccc1/C=C/c1cc(/C=C/c2c[nH]c3ncccc23)[nH]n1 [Example 75, 3-[(1E)-2-(7-aza-1H-indol-3-yl)ethenyl]-5-[(1E)-2-[2-methoxy-4-(2-pyridylmethoxy)phenyl]ethenyl]-1H-pyrazole] | 219 to 223 |
| COc1cc(OCCN(C)C)ccc1/C=C/c1cc(/C=C/c2ccc3cc[nH]c3c2)[nH]n1 [Example 76, 3-[(1E)-2-[4-[2-(dimethylamino)ethoxy]-2-methoxyphenyl]ethenyl]-5-[(1E)-2-(1H-indol-6-yl)ethenyl]-1H-pyrazole] | 109 to 112 |
| CC(C)c1ccc(/C=C/c2cc(/C=C/c3ccc4cc[nH]c4c3)[nH]n2)cc1 [Example 78, 3-[(1E)-2-(1H-indol-6-yl)ethenyl]-5-[(1E)-2-(4-isopropylphenyl)ethenyl]-1H-pyrazole] | 208 to 212 |

Source: patent publication US9399635B2, “Pyrazole derivative” (GREEN TECH CO., LTD., priority 2011, dated 2016)
